Starred links: 1 amine or outer side, 2 acyl side, 3 side chain; linkers in the order of their positions; H or OH if unused. Non-standard residues stand in square brackets, D forms with d. Residues, ends and D or L forms follow the SMILES beside them. *: point of attachment. X4 = O=C(N(Cc1ccc(-c2ccccc2)cc1)N[*:1])[*:2]; azaTyr = O=C(N(Cc1ccc(O)cc1)N[*:1])[*:2]; X3 = O=C(N(Cc1cccc2ccccc12)N[*:1])[*:2]; azaPhe = O=C(N(Cc1ccccc1)N[*:1])[*:2]; azaLeu = CC(C)CN(N[*:1])C(=O)[*:2]; azaPro = O=C(N1CCCN1[*:1])[*:2]; AzaAla = CN(N[*:1])C(=O)[*:2]; X5 = O=C(CC1CNc2ccccc21)*; azaGly = NNC(=O)O
The compounds below were run against human GHS-R1a (Homo sapiens (Human), UniProt Q92847) (assay: GHS-R1a binding assay, competition with 125I-ghrelin on membranes of LLC-PK1 cells expressing human GHS-R1a). Conditions: Table 4; LLCPK-1 membranes overexpressing GHS-R1a; radioiodinated (1-28) rat ghrelin as tracer; read-out: EC50 (text: IC50 values from competition curves in GHS-R1a radioreceptor assay).
Chain of human GHS-R1a (Q92847 whole entry): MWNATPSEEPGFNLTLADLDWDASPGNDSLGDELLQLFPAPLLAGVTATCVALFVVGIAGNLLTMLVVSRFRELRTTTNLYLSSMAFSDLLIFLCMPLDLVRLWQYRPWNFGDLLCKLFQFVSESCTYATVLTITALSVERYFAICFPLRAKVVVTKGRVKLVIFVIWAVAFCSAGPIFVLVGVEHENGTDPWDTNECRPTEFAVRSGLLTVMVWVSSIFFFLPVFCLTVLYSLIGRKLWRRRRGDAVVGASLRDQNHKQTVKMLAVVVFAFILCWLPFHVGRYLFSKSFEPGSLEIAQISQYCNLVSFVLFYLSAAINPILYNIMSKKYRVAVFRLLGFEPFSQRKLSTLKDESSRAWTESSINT
Method: Rat ghrelin was radio iodinated with Na^125I using the lodo-Beads iodination reagent (Pierce #28665). Briefly, an lodo-bead was incubated with 2 mCi of Na^125I (Amersham) in 100 μL of 50 mM sodium phosphate buffer, pH 7.0 for 5 min at 22° C. The reaction was started by adding 20 nmol of the peptide (1 mM in 0.1 M acetic acid). The tube was incubated for 10 min at 22° C. The iodination was terminated by adding 1 mL of 0.1% TFA. The mono-iodinated peptide was purified by reverse-phase HPLC using a Vydac C18 ([…]) column (30 cm×0.39 cm) in combination with a binary elution system of (A) 0.1% TFA in H2O and (B) 0.1% TFA, 10% H2O, 90% acetonitrile. Fractions of 0.5 mL were collected and analyzed by its radioactive content.
Cells (1.4×10^6) were plated in 100 mm plates and transfected 24 h later with pCDNA3.1-hGHS-R1a (UMR cDNA Resource Center #GHSR0A0000) following the CaHPO4 precipitation method. Briefly, 40 μg of plasmid DNA was diluted in 500 μL of sterile H2O and added to an equal volume of a 4× CaCl2, pH 7.9 solution (2 mM Tris-HCl, 0.2 mM EDTA, 500 mM CaCl2). The mixture was then added slowly with air bubbles to 1 mL of 2× Hepes-buffered saline, pH 7.1 (50 mM Hepes, 280 mM NaCl, 1.5 mM Na2HPO4). After 30 min at room temperature, 1 mL was distributed evenly over the cells and let overnight. The medium was changed the next morning and the membrane preparation was made two days later.
Cells were washed twice with PBS and once with ice-cold homogenization buffer (50 mM Tris-HCl, pH 7.3, 5 mM MgCl2, 2.5 mM EDTA, 30 μg/ml bacitracin). Cells were scraped and harvested in 1.5 mL tubes. Cells were then lysed by temperature shock with two freeze/thaw cycles in liquid nitrogen. The tubes were centrifuged at 14000 g for 20 min. Pellets were resuspended in homogenization buffer and stored at −80° C. until used. Total protein concentrations were determined with the BCA protein assay kit (Pierce).
Competition experiments were performed by incubating 50 μg of LLC-PK1 membranes expressing human GHS-R1a with 15 fmol of ^125I-Ghrelin and increasing concentrations of unlabeled ghrelin or with increasing concentrations of azapeptides derivatives in 0.5 mL of binding buffer. Bound radiolabelled ligand was separated from free by filtration on Whatman GF/C filters pretreated with a 1% polyethylenimine solution. Filters were washed with 2×3 mL of washing buffer (50 mM Tris-HCl, pH 7.3, 10 mM MgCl2, 2.5 mM EDTA, 0.015% Triton X-100). Filters were counted in a LKB gamma counter. Curves were analyzed using Prism software (GraphPad Software Inc).

| SMILES | IC50 |
| --- | --- |
| CN(NC(=O)[C@@H](Cc1c[nH]c2ccccc12)NC(=O)[C@@H](N)Cc1cnc[nH]1)C(=O)N[C@@H](Cc1c[nH]c2ccccc12)C(=O)N[C@H](Cc1ccccc1)C(=O)N[C@@H](CCCCN)C(N)=O [DBG145, His-D-Trp-azaAla-Trp-D-Phe-Lys-NH2] (H-H[dW][AzaAla]W[dF]K-NH2) | 0.809 µM |
| CN(NC(=O)[C@@H](Cc1c[nH]c2ccccc12)NC(=O)CC1CNc2ccccc21)C(=O)N[C@@H](Cc1c[nH]c2ccccc12)C(=O)N[C@H](Cc1ccccc1)C(=O)N[C@@H](CCCCN)C(N)=O (stereo partly drawn) [DBG168-8, In—CO-D-Trp-azaAla-Trp-D-Phe-Lys-NH2] (X5-[dW][AzaAla]W[dF]K-NH2) | 0.514 µM |
| C[C@H](NC(=O)[C@@H](Cc1c[nH]c2ccccc12)NC(=O)[C@@H](N)Cc1cnc[nH]1)C(=O)NN(Cc1ccc(-c2ccccc2)cc1)C(=O)N[C@H](Cc1ccccc1)C(=O)N[C@@H](CCCCN)C(N)=O [DBG253-3, His-D-Trp-Ala-azaBip-D-Phe-Lys-NH2] (H-H[dW]A[X4][dF]K-NH2) | 1.34 µM |
| C[C@H](NC(=O)[C@@H](Cc1c[nH]c2ccccc12)NC(=O)[C@@H](N)Cc1cnc[nH]1)C(=O)NN(Cc1cccc2ccccc12)C(=O)N[C@H](Cc1ccccc1)C(=O)N[C@@H](CCCCN)C(N)=O [DBG253-6, His-D-Trp-Ala-azaNal-1-D-Phe-Lys-NH2] (H-H[dW]A[X3][dF]K-NH2) | 0.723 µM |

Same assay, conditions: Table 5; read-out: IC50 Binding GHS-R1a

| IC50 | SMILES |
| --- | --- |
| > 10 µM | C[C@@H](NC(=O)[C@@H](N)Cc1cnc[nH]1)C(=O)NNC(=O)N[C@@H](Cc1c[nH]c2ccccc12)C(=O)N[C@H](Cc1ccccc1)C(=O)N[C@@H](CCCCN)C(N)=O [CP-2A(iv), His-D-Ala-azaGly-Trp-D-Phe-Lys-NH2] (H-H[dA][azaGly]W[dF]K-NH2) |
| > 10 µM | CC(C)CN(NC(=O)[C@@H](C)NC(=O)[C@@H](N)Cc1cnc[nH]1)C(=O)N[C@@H](Cc1c[nH]c2ccccc12)C(=O)N[C@H](Cc1ccccc1)C(=O)N[C@@H](CCCCN)C(N)=O [CP-2B (iv), His-D-Ala-azaLeu-Trp-D-Phe-Lys-NH2] (H-H[dA][azaLeu]W[dF]K-NH2) |
| > 10 µM | C[C@H](NC(=O)[C@@H](C)NC(=O)[C@@H](N)Cc1cnc[nH]1)C(=O)NN(Cc1ccccc1)C(=O)N[C@H](Cc1ccccc1)C(=O)N[C@@H](CCCCN)C(N)=O [CP-3 (iii), His-D-Ala-Ala-azaPhe-D-Phe-Lys-NH2] (H-H[dA]A[azaPhe][dF]K-NH2) |
| > 10 µM | C[C@H](NC(=O)[C@@H](Cc1ccccc1)NC(=O)N(Cc1ccccc1)NC(=O)[C@H](C)NC(=O)[C@@H](Cc1c[nH]c2ccccc12)NC(=O)[C@@H](N)Cc1cnc[nH]1)C(N)=O [CP-3(i), His-D-Trp-Ala-AzaPhe-D-Phe-Ala-NH2] (H-H[dW]A[azaPhe][dF]A-NH2) |
| > 10 µM | C[C@H](NC(=O)[C@@H](Cc1c[nH]c2ccccc12)NC(=O)[C@@H](N)Cc1cnc[nH]1)C(=O)NN(Cc1ccccc1)C(=O)N[C@H](C)C(=O)N[C@@H](CCCCN)C(N)=O [CP-3(ii), His-D-Trp-Ala-azaPhe-D-Ala-Lys-NH2] (H-H[dW]A[azaPhe][dA]K-NH2) |
| > 10 µM | NCCCC[C@H](NC(=O)[C@@H](Cc1ccccc1)NC(=O)[C@H](Cc1c[nH]c2ccccc12)NC(=O)N1CCCN1C(=O)[C@@H](Cc1c[nH]c2ccccc12)NC(=O)[C@@H](N)Cc1cnc[nH]1)C(N)=O [CP-AP_4, His-D-Trp-azaPro-Trp-D-Phe-Lys-NH2] (H-H[dW][azaPro]W[dF]K-NH2) |
| > 10 µM | NCCCC[C@H](NC(=O)[C@@H](Cc1ccccc1)NC(=O)C1CCCN1C(=O)NNC(=O)[C@@H](Cc1c[nH]c2ccccc12)NC(=O)[C@@H](N)Cc1cnc[nH]1)C(N)=O (stereo partly drawn) [CP-AzaGly-Pro, His-D-Trp-azaGly-Pro-D-Phe-Lys-NH2] |

Continued, compound first:

| SMILES | IC50 |
| --- | --- |
| C[C@H](NC(=O)N(Cc1ccccc1)NC(=O)[C@@H](N)Cc1cnc[nH]1)C(=O)N[C@@H](Cc1c[nH]c2ccccc12)C(=O)N[C@H](C)C(=O)N[C@@H](CCCCN)C(N)=O [CP-1A(ii), His-azaPhe-Ala-Trp-D-Ala-Lys-NH2] (H-H[azaPhe]AW[dA]K-NH2) | > 10 µM |
| C[C@H](NC(=O)[C@H](C)NC(=O)N(Cc1ccc(O)cc1)NC(=O)[C@@H](N)Cc1cnc[nH]1)C(=O)N[C@H](Cc1ccccc1)C(=O)N[C@@H](CCCCN)C(N)=O [CP-1B(iii), (D/L)His-azaTyr-Ala-Ala-D-Phe-Lys-NH2] (H-H[azaTyr]AA[dF]K-NH2) | > 10 µM |
| C[C@H](NC(=O)[C@@H](Cc1ccccc1)NC(=O)[C@H](Cc1c[nH]c2ccccc12)NC(=O)NNC(=O)[C@@H](Cc1c[nH]c2ccccc12)NC(=O)[C@@H](N)Cc1cnc[nH]1)C(N)=O [CP-2A(i), His-D-Trp-azaGly-Trp-D-Phe-Ala-NH2] (H-H[dW][azaGly]W[dF]A-NH2) | 45 µM |
| C[C@@H](NC(=O)[C@H](Cc1c[nH]c2ccccc12)NC(=O)NNC(=O)[C@@H](Cc1c[nH]c2ccccc12)NC(=O)[C@@H](N)Cc1cnc[nH]1)C(=O)N[C@@H](CCCCN)C(N)=O [CP-2A(ii), His-D-Trp-azaGly-Trp-D-Ala-Lys-NH2] (H-H[dW][azaGly]W[dA]K-NH2) | > 10 µM |
| C[C@H](NC(=O)NNC(=O)[C@@H](Cc1c[nH]c2ccccc12)NC(=O)[C@@H](N)Cc1cnc[nH]1)C(=O)N[C@H](Cc1ccccc1)C(=O)N[C@@H](CCCCN)C(N)=O [CP-2A(iii), His-D-Trp-azaGly-Ala-D-Phe-Lys-NH2] (H-H[dW][azaGly]A[dF]K-NH2) | > 10 µM |
| C[C@H](N)C(=O)N[C@H](Cc1c[nH]c2ccccc12)C(=O)N[C@@H](C)C(=O)NN(Cc1ccccc1)C(=O)N[C@H](Cc1ccccc1)C(=O)N[C@@H](CCCCN)C(N)=O [CP-3 (iv), Ala-D-Trp-Ala-AzaPhe-D-Phe-Lys-NH2] (H-A[dW]A[azaPhe][dF]K-NH2) | > 10 µM |

From patent publication US9708370B2, “Azapeptides as CD36 binding compounds” (VALORISATION-RECHERCHE, LIMITED PARTNERSHIP, priority 2007, dated 2017)
